In patent publication US20210138025A1, “CATIONIC PEPTIDES WITH IMMUNOMODULATORY AND/OR ANTI-BIOFILM ACTIVITIES” (priority 2018, published 2021):
Converted amounts (≈) assume the structure as drawn. Non-standard residues stand in square brackets, D forms with d. Residues, ends and D or L forms follow the SMILES beside them.

Key:
Type in all cases: cell-based
Streptococcus suis (Ss) [1] = tested on: Streptococcus suis (Ss)
Protocol: (§1) The following strains were assessed vs. Staphylococcus epidermidis (Se), Pseudomonas aeruginosa (Pa), Streptococcus dysgalactiae (Sd), Pasteurella multocida (Pm), Streptococcus agalactiae (Sa), Streptococcus uberis (Su), Streptococcus suis (Ss), Mannheimia haemolytica (Mh), Bordatella bronchiseptica (Bb), Histophilus somnus (Hs), and Staphylococcus pseudintermedius (Sp) (Table 18) for Minimal Inhibitory Concentrations (MIC). Italics=excellent activity (less than or equal to 4 μg/ml).

[2] = tested on: Staphylococcus epidermidis (Se)
Protocol: as §1

Histophilus somnus (Hs) [3] = tested on: Histophilus somnus (Hs)
Protocol: as §1

[4] = tested on: Streptococcus dysgalactiae (Sd)
Protocol: as §1

[5] = tested on: Bordatella bronchiseptica (Bb)
Protocol: as §1

[6] = tested on: Mannheimia haemolytica (Mh)
Protocol: as §1

[7] = tested on: Pseudomonas aeruginosa (Pa)
Protocol: as §1

[8] = tested on: Pasteurella multocida (Pm)
Protocol: as §1

[9] = tested on: Staphylococcus pseudintermedius (Sp)
Protocol: as §1

[10] = tested on: Streptococcus uberis (Su)
Protocol: as §1

[11] = tested on: Streptococcus agalactiae (Sa)
Protocol: as §1

Streptococcus suis (Ss) [12] = tested on: Streptococcus suis (Ss); remark: listed apart in the source
Protocol: (§2) The same strains as in Table 18 were assessed for Minimal Biofilm Inhibitory Concentrations (MBIC) (Table 19). Italics=excellent activity (less than or equal to 4 μg/ml). ND=Not determined. Peptides 3013, 3015 and 3016 inhibited biofilm growth in the largest number of bacterial strains (5, 5 and 6 out of 13 strains, respectively).

[13] = tested on: Staphylococcus epidermidis (Se); remark: listed apart in the source
Protocol: as §2

Histophilus somnus (Hs) [14] = tested on: Histophilus somnus (Hs); remark: listed apart in the source
Protocol: as §2

[15] = tested on: Streptococcus dysgalactiae (Sd); remark: listed apart in the source
Protocol: as §2

[16] = tested on: Bordatella bronchiseptica (Bb); remark: listed apart in the source
Protocol: as §2

[17] = tested on: Mannheimia haemolytica (Mh); remark: listed apart in the source
Protocol: as §2

[18] = tested on: Pseudomonas aeruginosa (Pa); remark: listed apart in the source
Protocol: as §2

[19] = tested on: Pasteurella multocida (Pm); remark: listed apart in the source
Protocol: as §2

[20] = tested on: Staphylococcus pseudintermedius (Sp); remark: listed apart in the source
Protocol: as §2

[21] = tested on: Streptococcus uberis (Su); remark: listed apart in the source
Protocol: as §2

[22] = tested on: Streptococcus agalactiae (Sa); remark: listed apart in the source
Protocol: as §2

S. aureus (Sau) = conditions: Sau
LPS stimulated monocytes = assay: Anti-inflammatory activity in LPS stimulated monocytes, bovine (Table 23); conditions: 32 μg/ml peptide, negative = increase
CCL5 = CCL5 production by peptide alone and in presence of Con A, canine cells (Table 21); conditions: peptide 32 μg/ml
Protocol: A subset of peptides was tested for stimulation of the chemokine CCL5 (Table 21).

monocytes = assay: Cytokine production in unstimulated monocytes, bovine (Table 22); conditions: background subtracted
Protocol: A subset of peptides was tested for stimulation of cytokine production in monocytes (Table 22). For the tested cytokines, the peptides tended to show anti-inflammatory activity rather than […] activity.

[23] = tested on: ConA stimulated monocytes; assay: Anti-inflammatory activity in ConA stimulated monocytes, canine (Table 23); conditions: 32 μg/ml peptide, negative = increase

MIC Ss (Streptococcus suis (Ss) [1]): <1 µg/mL | MIC Se [2]: 2 µg/mL (≈ 1.29 µM) | MIC Hs (Histophilus somnus (Hs) [3]): 32 µg/mL (≈ 20.6 µM) | MIC Sd [4]: <1 µg/mL | MIC Bb [5]: 4 µg/mL (≈ 2.58 µM) | MIC Pa [7]: 4 µg/mL (≈ 2.58 µM) | MIC Pm [8]: 8 µg/mL (≈ 5.16 µM) | MIC Sp [9]: <1 µg/mL | MIC Su [10]: <1 µg/mL | MIC Sa [11]: 2 µg/mL (≈ 1.29 µM) | MIC S. aureus (S. aureus (Sau)): 2 µg/mL (≈ 1.29 µM) | MIC Sau (S. aureus (Sau)): 2 µg/mL (≈ 1.29 µM)
SMILES: CC[C@@H](C)[C@@H](NC(=O)[C@@H](C)NC(=O)[C@@H](CCCNC(=N)N)NC(=O)[C@@H](Cc1c[nH]c2ccccc12)NC(=O)[C@@H](CCC(N)=O)NC(=O)[C@H](N)C(C)C)C(=O)N[C@H](CCCNC(=N)N)C(=O)N[C@@H](C(=O)N[C@H](CCCNC(=N)N)C(=O)N[C@@H](C(=O)N[C@@H](C(=O)N[C@H](CCCNC(=N)N)C(N)=O)[C@H](C)CC)C(C)C)C(C)C [DJK5, VQWRAIRVRVIR] (H-[dV][dQ][dW][dR][dA][dI][dR][dV][dR][dV][dI][dR]-NH2; N-terminus and C-terminus assumed)
MIC Mh [6]: 8 µg/mL (≈ 5.16 µM) | MBIC (Streptococcus suis (Ss) [12]): 4 µg/mL | MBIC [13]: 2 µg/mL | MBIC (Histophilus somnus (Hs) [14]): <1 µg/mL | MBIC [15]: 2 µg/mL | MBIC [16]: 2 µg/mL | MBIC [17]: 4 µg/mL | MBIC [18]: 8 µg/mL | MBIC [19]: 2 µg/mL | MBIC [20]: <1 µg/mL | MBIC [21]: 2 µg/mL | MBIC [22]: 2 µg/mL | % Monocyte cytokine decrease in presence of LPS/ConA, IFNγ (LPS stimulated monocytes): 31.6% | % Monocyte cytokine decrease in presence of LPS/ConA, IL-2 (LPS stimulated monocytes): 34.0% | % Monocyte cytokine decrease in presence of LPS/ConA, IL-4 (LPS stimulated monocytes): 3.9% | % Monocyte cytokine decrease in presence of LPS/ConA, IL-6 (LPS stimulated monocytes): 21.0% | % Monocyte cytokine decrease in presence of LPS/ConA, IL-13 (LPS stimulated monocytes): 65.5% | % Monocyte cytokine decrease in presence of LPS/ConA, TNFα (LPS stimulated monocytes): 68.1% | Concentration of CCL5 in the absence of stimulation by LPS or ConA (CCL5; Canine Monocyte): 442 | Concentration of CCL5 in the absence of stimulation by LPS or ConA (CCL5; Canine T-cells): 290 | % CCL5 production relative to that of LPS/ConA (CCL5; Canine/ConA Monocyte): 81% | % CCL5 production relative to that of LPS/ConA (CCL5; Canine/ConA T-cells): 26% | Concentration of Monocyte cytokine IFNγ in absence of additional stimulant (monocytes): -3 pg/mL | Concentration of Monocyte cytokine IL-2 in absence of additional stimulant (monocytes): -103 pg/mL | Concentration of Monocyte cytokine IL-4 in absence of additional stimulant (monocytes): -196 pg/mL | Concentration of Monocyte cytokine IL-6 in absence of additional stimulant (monocytes): 75 pg/mL | Concentration of Monocyte cytokine IL-13 in absence of additional stimulant (monocytes): 294 pg/mL | Concentration of Monocyte cytokine TNFα in absence of additional stimulant (monocytes): -218 pg/mL | % Monocyte cytokine decrease in presence of LPS/ConA, IFNγ [23]: 13.7% | % Monocyte cytokine decrease in presence of LPS/ConA, IL-2 [23]: 38.9% | % Monocyte cytokine decrease in presence of LPS/ConA, IL-4 [23]: 32.6%
